# Experimental data taken from patent US20150203561A1, “BETA THYMOSIN FRAGMENTS” (REGENERX BIOPHARMACEUTICALS, INC., priority 2008, published 2015).
# Columns and labels:
# L1 = assay: Stimulation of L1 production (summary table); parameters: key: P = active; U = useful; conditions: summary of peptide uses
# [1] = system: tissue damage caused by UV radiation; assay: UV radiation tissue damage (summary table); parameters: key: P = active; U = useful; conditions: summary of peptide uses
# neuron survival = assay: Promotion of neuron survival (summary table); parameters: key: P = active; U = useful; conditions: summary of peptide uses
# neurite outgrowth = assay: Promotion of neurite outgrowth (summary table); parameters: key: P = active; U = useful; conditions: summary of peptide uses
# human dermal fibroblasts [2] = assay: Collagen secretion, colorimetric assay; type: cell-based; parameters: key to Stimulates collagens / Inhibits collagens: P = active; U = useful; conditions: for Stimulates collagens / Inhibits collagens: summary of peptide uses
# Procedure: (§1) Effect of Tb4 and peptides on collagen secretion • Human dermal fibroblasts (Fb) were cultured to 80% confluence • Cells were treated with 1 μg/ml Tb4 or peptides for 24, 48, or 72 hours. Cells were treated once/day. • Culture supernatants (n=3, experiments repeated 5 times) were assayed for collagen secretion using a colorimetric assay that detects collagen types I, II, III, IV and V, and possibly VII
# IKKb = target: T1, IKKb (Homo sapiens, UniProt O14920); assay: Cell-free IkBa phosphorylation ELISA (NFkB signaling pathway); type: biochemical; parameters: key to Inhibits IkBa phosphorylation: P = active; U = useful
# T1 sequence (O14920 1-756): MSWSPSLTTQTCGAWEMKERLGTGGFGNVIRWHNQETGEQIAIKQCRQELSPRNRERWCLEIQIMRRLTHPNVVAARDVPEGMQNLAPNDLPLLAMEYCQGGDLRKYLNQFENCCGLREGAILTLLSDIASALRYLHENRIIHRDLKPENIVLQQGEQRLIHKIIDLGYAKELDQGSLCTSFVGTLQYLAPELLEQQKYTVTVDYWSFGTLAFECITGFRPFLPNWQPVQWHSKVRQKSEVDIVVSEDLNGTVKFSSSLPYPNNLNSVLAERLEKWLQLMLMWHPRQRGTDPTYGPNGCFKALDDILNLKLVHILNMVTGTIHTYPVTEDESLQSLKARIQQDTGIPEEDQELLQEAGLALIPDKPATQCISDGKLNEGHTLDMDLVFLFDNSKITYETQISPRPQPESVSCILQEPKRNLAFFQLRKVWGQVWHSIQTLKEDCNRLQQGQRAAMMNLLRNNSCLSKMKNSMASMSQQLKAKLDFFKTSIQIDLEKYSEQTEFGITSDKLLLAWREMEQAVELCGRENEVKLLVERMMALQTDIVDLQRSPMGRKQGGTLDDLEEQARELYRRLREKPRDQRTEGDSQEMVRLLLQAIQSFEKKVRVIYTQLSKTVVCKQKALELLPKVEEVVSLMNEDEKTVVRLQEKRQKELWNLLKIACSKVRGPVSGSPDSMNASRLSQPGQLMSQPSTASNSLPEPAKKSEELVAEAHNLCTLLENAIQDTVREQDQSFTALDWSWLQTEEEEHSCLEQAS
# Procedure: Effect of Tb4 and peptides on the NFkB signaling pathway • Cell-free assay • Prepared 1.0, 0.1, and 0.01 ng/ml solutions of Tb4 or peptides in kinase buffer supplied with kit • Added 10 μl of the solutions to wells of a 96-well plate coated with lkBa • IKKb (20 mU) was added to wells • 90 μl kinase reaction buffer (containing ATP) was added to the wells • ELISA to detect phosphorylated lkBa
# cell migration = assay: Stimulation of migration (summary table); type: cell-based; parameters: key: P = active; U = useful; conditions: summary of peptide uses
# human dermal fibroblasts [3] = assay: Elastin secretion, colorimetric assay; type: cell-based; parameters: key to Stimulates Elastin: P = active; U = useful; conditions: for Secretion of elastin: dermal Fb, 1 μg/ml once/day, 24, 48, or 72 hours; for Stimulates Elastin: summary of peptide uses
# Procedure: as §1, with “elastin” for “collagen”, “6” for “5”, “• Data was analyzed using the t-test” for “that detects collagen types I, II, III, IV and V, and possibly VII”
# human dermal fibroblasts [4] = assay: LDH cytotoxicity assay in human dermal fibroblasts exposed to cytotoxic agents; type: cell-based; parameters: key to Protects from cytotoxicity: P = active; U = useful; conditions: for Protects from cytotoxicity: summary of peptide uses
# Procedure: Dose Response Analysis of Peptide 3A • Human dermal fibroblasts (Fb, Cascade Biologics, OR) were cultured to 80% confluence • 2 ml CHX (0.002%) in basal medium ±1 μg/ml Tb4 or 1.0, 0.1, 0.01, or 0.001 μg/ml peptide 3A was added to Fb for 1, 2, 3, or 4 hours • 100 μl culture medium (n=4) was added to 100 μl LDH reagent and incubated at room temperature for 20 minutes • OD500 nm was read and averages ±SEM were calculated • Data was analyzed with probability of p≦0.05
# [5] = system: TNF-a-stimulated IL8 secretion; assay: Suppression of inflammation (summary table; IL-8 secretion); type: cell-based, human; parameters: key: P = active; U = useful; conditions: summary of peptide uses
# Procedure: Analysis of IL-8 Secretion • Human corneal epithelial cells or dermal Fb were cultured to 80% confluence • Cells were pre-treated with 1 μg/ml Tb4 or peptides for one hour • Cells were stimulated with 10 ng/ml TNF-a in the presence or absence of Tb4 or peptides • Culture medium was analyzed for secreted IL-8 by ELISA (n=3, experiments repeated twice) • Data was analyzed using the t-test
# human dermal Fb = assay: CHX-induced apoptosis (APOPercentage dye) in human dermal Fb; type: cell-based; parameters: key to Inhibits apoptosis: P = active; U = useful; conditions: summary of peptide uses
# Procedure: Effect of Tb4 and Peptide 3A on CHX-induced apoptosis • Human dermal Fb were cultured to 80% confluence • Fb were treated with 0.002% CHX+1 μg/ml Tb4 or peptide 3A, 4A or 6A for 1.5 hours • APOPercentage “dye” was added to the Fb cultures at a 1:50 dilution for an additional 30 minutes • Excess dye was washed from the cells, and digital images were captured. Cells dyed red were apoptotic • Adobe Photoshop was used to calculate the number of red pixels in six digitized images for each treatment • Statistical analysis was done using the t-test
# [6] = system: p65 subunit of NFkB in human corneal epithelial cells; assay: NFkB nuclear translocation; type: cell-based; parameters: key: P = active; U = useful; conditions: summary of peptide uses
# Procedure: Analysis of NFkB Nuclear Translocation • Human corneal epithelial cells were cultured to 80% confluence • Cells were pre-treated with 1 μg/ml Tb4 or peptide 4A or 6A for one hour • Cells were stimulated with 10 ng/ml TNF-a in the presence or absence of Tb4 or peptides for 15 minutes • Cells were fixed and labeled with antibodies to the p65 subunit of NFkB
# [7] = system: Transformed human corneal epithelial cells (HCET); assay: Collagen type IV secretion ELISA; type: cell-based; parameters: key to Stimulates collagen IV: P = active; U = useful; conditions: for Collagen type IV secretion: corneal epithelial cells, 1 μg/ml, 24 hours; for Stimulates collagen IV: summary of peptide uses
# Procedure: Effect of Tb4 and peptides on collagen type IV secretion • Transformed human corneal epithelial cells (HCET) were cultured to 80% confluence • Cells were treated with 1 μg/ml Tb4 or peptides for 24 hours • Culture supernatant samples (n=3 per experiment, total of 4 experiments) were analyzed using a collagen type IV ELISA • Data was analyzed using the t-test
Substance,Stimulates L1 production (L1),Inhibits tissue damage caused by UV radiation [1],Protects tissue from UV radiation damage [1],Promotes neuron survival (neuron survival),Promotes neurite outgrowth (neurite outgrowth),"Stimulation of secretion of collagens (human dermal fibroblasts [2]; human dermal fibroblasts, 1 μg/ml once/day, after 3 days of treatment)",Stimulates collagens (human dermal fibroblasts [2]),Inhibits collagens (human dermal fibroblasts [2]),"Inhibition of IkBa phosphorylation (NFkB signaling pathway) (IKKb; cell-free, 1.0, 0.1, and 0.01 ng/ml)",Inhibits IkBa phosphorylation (IKKb; summary of peptide uses),Stimulates Migration (cell migration),Secretion of elastin (human dermal fibroblasts [3]),Stimulates Elastin (human dermal fibroblasts [3]),"Protection of Fb against the cytotoxic effects of CHX (LDH) (human dermal fibroblasts [4]; 1 μg/ml, 0.002% CHX, 2 hour exposure)",Protects from cytotoxicity (human dermal fibroblasts [4]),Suppresses inflammation [5],Inhibits apoptosis (human dermal Fb),Inhibits NFkB translocation [6],Collagen type IV secretion [7],Stimulates collagen IV [7]
Ac-Glu-Lys-Asn-Pro-Leu-Pro-Ser-Lys-Glu-Thr-OH (Ac-EKNPLPSKET-OH) [Peptide 5B],U,U,U,U,U,stimulates,P,,,,,,,,,,,,,
Ac-Ile-Glu-Gln-Glu-Lys-Gln-Ala-Gly-Glu-Ser-OH (Ac-IEQEKQAGES-OH) [Peptide 6B],U,U,U,U,U,,,P,may have an effect,P,,,,,,,,,,
Ac-Leu-Lys-Lys-Thr-Glu-Thr-Gln-OH (Ac-LKKTETQ-OH) [Peptide 4B],U,U,U,U,U,,,,,,P,stimulate,P,,,,,,,
Ac-Leu-Lys-Lys-Thr-Glu-Thr-OH (Ac-LKKTET-OH) [Peptide 1B],U,U,U,U,U,,,P,,,,,,,,,,,,
Ac-Met-Ala-Glu-Ile-Glu-Lys-Phe-Asp-Lys-Ser-OH (Ac-MAEIEKFDKS-OH) [Peptide 7B],U,U,U,U,U,,,U,,,,stimulate,U,,,,,,,
Ac-SDKPDMAEIEKFDKS-OH [Peptide 3B],U,U,U,U,U,,,P,,,,,,protect,P,,,,,
Ac-SDKPDMAEIEKFDKSKLKKTET-OH [Fragment Ab],U,U,U,U,U,,U,U,,,U,,U,,U,U,U,,,
Ac-SDKPDMAEIEKFDKSKLKKTETQ-OH [Fragment Bb],U,U,U,U,U,,U,U,,,U,,U,,U,U,U,,,
H-Glu-Lys-Asn-Pro-Leu-Pro-Ser-Lys-Glu-Thr-OH (H-EKNPLPSKET-OH) [Peptide 5A],U,U,U,U,U,,,,,,P,,,,,,,,,
H-Ile-Glu-Gln-Glu-Lys-Gln-Ala-Gly-Glu-Ser-OH (H-IEQEKQAGES-OH) [Peptide 6A],U,U,U,U,U,,,P,,,,,,,,,,,,
H-Leu-Lys-Lys-Thr-Glu-Thr-Gln-OH (H-LKKTETQ-OH) [Peptide 4A],U,U,U,U,U,,,,,,,stimulates,P,,,,,P,stimulate,P
H-Met-Ala-Glu-Ile-Glu-Lys-Phe-Asp-Lys-Ser-OH (H-MAEIEKFDKS-OH) [Peptide 7A],U,U,U,U,U,,,P,,,,,,,,,,,,
H-Ser-Asp-Lys-Pro-OH (H-SDKP-OH) [Peptide 2A],U,U,U,U,U,,,P,,,,,,,,,,,stimulate,P
